Data as given in patent US4206215A, “Antimicrobial bis-[4-(substituted-amino)-1-pyridinium]alkanes” (Sterling Drug Inc., priority 1977, dated 1980).
Read-outs that look alike come from different tables or passages of the source.

Legend:
S. Aureus Smith = assay: In vitro antibacterial activity, MIC (modified Autotiter method); type: cell-based, Staphylococcus aureus; details: 18-20 hours at 37° C.
Method in brief: (§1)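 MIC values come from a twofold dilution series spanning final concentrations of 500 down to 0.06 mcg./ml. Dilutions were prepared automatically in sterile water from a 1,000 mcg./ml. solution before inoculated double-strength glucose-containing semisynthetic medium was added.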

E. coli 100/B22 = assay: as above; type: cell-based, Escherichia coli; details: for MIC E. coli 100/B22: 18-20 hours at 37° C.
Method in brief: as §1

E. coli AB1932-1 = assay: as above; type: cell-based, Escherichia coli; details: 18-20 hours at 37° C.
Method in brief: as §1

E. coli Vogel = assay: as above; type: cell-based, Escherichia coli; details: 18-20 hours at 37° C.
Method in brief: as §1

K. pneum. 39645 = assay: as above; type: cell-based, Klebsiella pneumoniae; details: 18-20 hours at 37° C.
Method in brief: as §1

P. mirab. MGH-1 = assay: as above; type: cell-based, Proteus mirabilis; details: 18-20 hours at 37° C.
Method in brief: as §1

Ps. aerug. MGH-2 = assay: as above; type: cell-based, Pseudomonas aeruginosa; details: 18-20 hours at 37° C.
Method in brief: as §1

S. pyogen. C203 = assay: as above; type: cell-based, Streptococcus pyogenes; details: 18-20 hours at 37° C.
Method in brief: as §1

A. niger 16404 = assay: In vitro antifungal activity, MIC (modified Autotiter method); type: cell-based, Aspergillus niger; details: 18-20 hours at 37° C.
Method in brief: as §1

C. albicans 10231 = assay: as above; type: cell-based, Candida albicans; details: 18-20 hours at 37° C.
Method in brief: as §1

C. albicans Wisc. = assay: as above; type: cell-based, Candida albicans; details: 18-20 hours at 37° C.
Method in brief: as §1

T. menta. 9129 = assay: as above; type: cell-based, Trichophyton mentagrophytes; details: 18-20 hours at 37° C.
Method in brief: as §1

S. Aureus ATCC 6538 = assay: Effect of serum on bacteriostatic activity (serial tube dilution test); type: cell-based, Staphyloccocus aureus; details: for MIC: Staphylococcus aureus, ATCC6538
Description: (§2) Antibacterial effectiveness in the presence of serum was determined for representative examples by the standard serial tube dilution test wherein paired comparisons of minimum inhibitory concentrations (MIC) were determined in the absence and in the presence of heat inactivated (30 min. at 56° C.) horse serum (40%) in the test medium. The results are expressed as the fold increase in MIC (mcg./ml.) versus Staphyloccocus aureus and Escherichia coli caused by the presence of serum and are presented in Table B hereinbelow.

E. Coli ATCC 8739 = assay: as above; type: cell-based, Escherichia coli; details: for MIC: Escherichia coli, ATCC8739
Description: as §2

[1] = system: Herpes simplex type 2 virus; assay: Virucidal activity in vitro (plaque inhibition test); type: cell-based; details: 2 mg. of test compound on growth medium
Description: Virucidal activity of representative examples against Herpes simplex type 2 virus was determined in vitro employing a procedure similar to the plaque inhibition test for detection of specific inhibitors of DNA-containing viruses published by E. C. Herrmann, Jr., Proc. Soc. Exp. Biol. Med. 107, 142 (1961) wherein 2 mg. of the test compound was placed on the surface of the growth medium.

[2] = system: young adult male Swiss-Webster strain albino mice; assay: Acute oral toxicity (ALD50); type: in vivo
Description: (§3) The acute oral toxicity (ALD50) of several representative examples was determined as follows: Groups of 3 young adult male Swiss-Webster strain albino mice were fasted approximately 4 hours before medication and then medicated once orally by stomach tube.

[3] = Acute oral toxicity (ALD50); type: in vivo; details: mouse, in vivo, po, mice, read-out: 7-Day ALD50
Description: as §3

[4] = 125 mg/kg oral, suspension in 1% G.T.
[5] = 250 mg/kg oral, suspension in 1% G.T.
[6] = 500 mg/kg oral, suspension in 1% G.T.
[7] = 1000 mg/kg oral, suspension in 1% G.T.
[8] = 125 mg/kg oral, aqueous solution
[9] = 250 mg/kg oral, aqueous solution
[10] = 500 mg/kg oral, aqueous solution
[11] = 1000 mg/kg oral, aqueous solution

| SMILES | MIC S. Aureus Smith (S. Aureus Smith) [µg/mL] | MIC E. coli 100/B22 (E. coli 100/B22) [µg/mL] | MIC E. coli AB1932-1 (E. coli AB1932-1) [µg/mL] | MIC E. coli Vogel (E. coli Vogel) [µg/mL] | MIC K. pneum. 39645 (K. pneum. 39645) [µg/mL] | MIC P. mirab. MGH-1 (P. mirab. MGH-1) [µg/mL] | MIC Ps. aerug. MGH-2 (Ps. aerug. MGH-2) [µg/mL] | MIC S. pyogen. C203 (S. pyogen. C203) [µg/mL] | MIC A. niger 16404 (A. niger 16404) [µg/mL] | MIC C. albicans 10231 (C. albicans 10231) [µg/mL] | MIC C. albicans Wisc. (C. albicans Wisc.) [µg/mL] | MIC T. menta. 9129 (T. menta. 9129) [µg/mL] | Mortality 7 Days [2, 4] | Mortality 24 Hrs [2, 4] | Mortality 7 Days [2, 5] | Mortality 24 Hrs [2, 5] | Mortality 7 Days [2, 6] | Mortality 24 Hrs [2, 6] | Mortality 7 Days [2, 7] | Mortality 24 Hrs [2, 7] | also measured |
| --- | --- | --- | --- | --- | --- | --- | --- | --- | --- | --- | --- | --- | --- | --- | --- | --- | --- | --- | --- | --- | --- |
| CCCCCCCNc1cc[n+](CCCCCCCCCCCCCC[n+]2ccc(NCCCCCCC)cc2)cc1 [Example 1D, 1,14-bis-[4-(heptylamino)-1-pyridinium]-tetradecane dibromide] | 0.77 | 0.77 | 3.0 | 1.54 | 0.77 | 1.54 | 3.0 | 1.95 | 3.0 | 1.54 | 1.54 | 0.77 | 0/3 | 0/3 | 0/3 | 0/3 | 1/3 | 1/3 | 2/3 | 2/3 | Fold Increase in MIC S. Aureus ATCC 6538 (S. Aureus ATCC 6538; 40% vs 0% horse serum): 16 fold; MIC (S. Aureus ATCC 6538; 40% heat inactivated horse serum, read-out: MIC S. Aureus ATCC 6538 40% Serum): 3.12 µg/mL; MIC (S. Aureus ATCC 6538; read-out: MIC S. Aureus ATCC 6538 0% Serum): 0.195 µg/mL; Fold Increase in MIC E. Coli ATCC 8739 (E. Coli ATCC 8739; 40% vs 0% horse serum): 16 fold; MIC (E. Coli ATCC 8739; 40% heat inactivated horse serum, read-out: MIC E. Coli ATCC 8739 40% Serum): 25 µg/mL; MIC (E. Coli ATCC 8739; read-out: MIC E. Coli ATCC 8739 0% Serum): 1.56 µg/mL; Virucidal activity against Herpes simplex type 2 virus [1]: active; 7-Day ALD50 ([2]; oral, suspension in 1% gum tragacanth, 10080 min): 750 mg/kg |
| CCCCCCCNc1cc[n+](CCCCCCCCCCCCCC[n+]2ccc(NCCCCCCC)cc2)cc1 [Example 2, 1,14-bis-[4-(heptylamino)-1-pyridinium]tetradecane dichloride] | – | – | 1.0 | – | 3.9 | 3.9 | – | – | 7.8 | 3.9 | 7.8 | – | 0/3 | 0/3 | 1/3 | 0/3 | 0/3 | 0/3 | 1/3 | 0/3 | MIC (S. Aureus Smith; Staphylococcus aureus, 20 h, read-out: MIC S. Aureus Smith): 1 µg/mL; MIC (E. coli 100/B22; Escherichia coli, 100/B22, 20 h, read-out: MIC E. coli 100/B22, 18-20 hours at 37° C.): 1 µg/mL; MIC (E. coli Vogel; Escherichia coli, 20 h, read-out: MIC E. coli Vogel): 1.95 µg/mL; MIC (Ps. aerug. MGH-2; Pseudomonas aeruginosa, 20 h, read-out: MIC Ps. aerug. MGH-2): 1.95 µg/mL; MIC (S. pyogen. C203; Streptococcus pyogenes, 20 h, read-out: MIC S. pyogen. C203): 1 µg/mL; MIC (T. menta. 9129; Trichophyton mentagrophytes, 20 h, read-out: MIC T. menta. 9129): 1 µg/mL; LD50 at 168 h ([3]; suspension in 1% gum tragacanth): 1000 mg/kg |
| CCCCCCNc1cc[n+](CCCCCCCCCCCCCC[n+]2ccc(NCCCCCC)cc2)cc1 [Example 6] | 0.5 | 0.5 | 0.5 | 1.0 | 1.0 | 3.9 | 3.9 | 1.95 | 3.9 | 1.0 | 1.95 | 0.5 | – | – | – | – | – | – | – | – | LD50 at 168 h ([3]; aqueous solution): 315 mg/kg; Mortality 7 Days [2, 8]: 1/3; Mortality 24 Hrs [2, 8]: 1/3; Mortality 7 Days [2, 9]: 1/3; Mortality 24 Hrs [2, 9]: 0/3; Mortality 7 Days [2, 10]: 2/3; Mortality 24 Hrs [2, 10]: 2/3; Mortality 7 Days [2, 11]: 3/3; Mortality 24 Hrs [2, 11]: 3/3 |
